Assay results from patent US4385058A, “Pyrimidone derivatives” (Smith Kline & French Laboratories Limited, priority 1980, dated 1983).

Test system: histamine H2 -receptors
Assay: Inhibition of histamine-stimulated acid secretion in the Heidenhain pouch dog
Type: in vivo
Conditions: intravenous administration; dose levels adjusted to produce similar peak responses
Text: Heidenhain pouch dogs can be prepared and used as described in European Specification No. 15138.

SMILES: Cc1ccc(Cc2cnc(NCCSCc3cc(CN(C)C)ccn3)[nH]c2=O)cn1 [Example 1, 2-[2-(4-dimethylaminomethyl-2-pyridylmethylthio)ethylamino]-5-(6-methyl-3-pyridylmethyl)-4-pyrimidone]
- duration of activity versus cimetidine: longer duration of activity than cimetidine
